Values of other authors in article PMC9409351, “Differential Ganglioside and Cholesterol Depletion by Various Cyclodextrin Derivatives and Their Effect on Synaptosomal Glutamate Release” (International Journal of Molecular Sciences, 2022).

Key:
[1] = test system: cell model of GM1 gangliosidosis; set-up: method as in doi:10.1007/s10847-018-0835-8; conditions: immunofluorescence staining; cited from earlier work
cerebellar granule cells = test system: cerebellar granule cells; set-up: method as in PMID 12897192; conditions: in addition to cholesterol extraction; cited from earlier work

Row | Compound | Lysosomal accumulation of GM1 [1] | Sphingomyelin and GSL levels after treatment (cerebellar granule cells)
1 | COCC1OC2OC3C(COC)OC(OC4C(COC)OC(OC5C(COC)OC(OC6C(COC)OC(OC7C(COC)OC(OC1C(O)C2OC)C(OC)C7O)C(OC)C6O)C(OC)C5O)C(OC)C4O)C(OC)C3O (stereo not drawn) [DIMEA, hexakis(2,6-di-O-methyl)-alpha-cyclodextrin] | reduced lysosomal accumulation of GM1 | –
2 | methylated beta-cyclodextrins [MBCD] | – | reduction in the sphingomyelin and GSL levels
